Our source for the IC50 values is patent US20230192700A1, “PYRAZOLOPYRAZINES ACTING ON CANCERS VIA INHIBITION OF CDK12” (Bayer Aktiengesellschaft, priority 2020, published 2023).

Assay [1] relates to MDA-MB-231 human breast cancer cells. The assay can be described thus: Proliferation assay MDA-MB-231 (crystal violet). It is filed as cell-based. The conditions noted are these: MDA-MB-231 cells, 4 days, median, read-out: Prolif-MDA MB231 IC50 - [mol/l] (median). The method, then: 4. Proliferation assay: MDA-MB-231, CAL-120
Human tumour cells were originally obtained from the American Type Culture Collection (ATCC), or from the Deutsche Sammlung von Mikroorganismen and Zellkulturen (DSMZ, German Collection of Microorganisms and Cell Cultures). Cultivated tumour cells (CAL-120, human breast adenocarcinoma cells, DSMZ ACC-459; MDA-M B-231, human breast cancer cells, ATCC HTB-26) were plated at a density of 4,000 cells/well in a 96-well multititer plate in 200 microL of their respective growth medium supplemented 10% fetal calf serum. After 24 hours, the cells of one plate (zero-point plate) were stained with crystal violet (see below), while the medium of the other plates was supplemented with the test substances in various concentrations (0 micromol/L, as well as in the range of 0.01-10 micromol/L; the final concentration of the solvent dimethyl sulfoxide was adjusted to 0.1%) using a Tecan HP D300 Digital Dispenser. The cells were incubated for 4 days in the presence of test substances. Cell proliferation was determined by staining the cells with crystal violet: the cells were fixed by adding 20 microL/measuring point of an 11% glutaric aldehyde solution for 15 minutes at room temperature. After three washing cycles of the fixed cells with water, the plates were dried at room temperature. The cells were stained by adding 100 microL/measuring point of a 0.1% crystal violet solution (pH 3.0). After three washing cycles of the stained cells with water, the plates were dried at room temperature. The dye was dissolved by adding 100 microL/measuring point of a 10% acetic acid solution. The extinction was determined by photometry at a wavelength of 595 nm. The change of cell number, in percent, was calculated by normalization of the measured values to the extinction values of the zero-point plate(=0%) and the extinction of the untreated (0 μM) cells(=100%). The IC50 values (inhibitory concentration at 50% of maximal effect) were determined by means of a 4 parameter fit.

For a further assay, the target named is T1, CDK9/CyclinT1 (Homo sapiens, UniProt P50750).
T1 construct: Recombinant full-length His-tagged human CDK9 and CycT1; His-tag; purchased Life Technologies PV4131; host or cells: insect cells
Briefly: CDK9/CycT1 high ATP kinase assay (TR-FRET). It is filed as biochemical. The conditions noted are these: 2 mM ATP (high ATP); median; read-out: CDK9/CyclinT1, 2 mM ATP (high ATP) IC50 - [mol/l] (median). How it is done: 2.5 CDK9/CycT1 High ATP Kinase Assay
CDK9/CycT1 -inhibitory activity of compounds of the present invention at a high ATP concentration after preincubation of enzyme and test compounds was quantified employing the CDK9/CycT1 TR-FRET assay as described in the following paragraphs.
Recombinant full-length His-tagged human CDK9 and CycT1, expressed in insect cells and purified by Ni-NTA affinity chromatography, were purchased from Life Technologies (Cat. No PV4131). As substrate for the kinase reaction biotinylated peptide biotin-Ttds-YISPLKSPYKISEG (C-terminus in amide form) was used which can be purchased e.g. form the company JERINI peptide technologies (Berlin, Germany).
For the assay 50 nanoL of a 100 fold concentrated solution of the test compound in DMSO was pipetted into either a black low volume 384 well microtiter plate or a black 1536 well microtiter plate (both Greiner Bio-One, Frickenhausen, Germany), 2 microL of a solution of CDK9/CycT1 in aqueous assay buffer [50 millimol/L Tris/HCl pH 8.0, 10 millimol/L MgCl2, 1.0 millimol/L dithiothreitol, 0.1 millimol/L sodium ortho-vanadate, 0.01% (v/v) Nonidet-P40 (Sigma)] were added and the mixture was incubated for 15 min at 22° C. to allow pre-binding of the test compounds to the enzyme before the start of the kinase reaction. Then the kinase reaction was started by the addition of 3 microL of a solution of adenosine-tri-phosphate (ATP, 3.3 millimol/L=>final conc. in the 5 microL assay volume is 2 millimol/L) and substrate (1.25 micromol/L =>final conc. in the 5 microL assay volume is 0.75 micromol/L) in assay buffer and the resulting mixture was incubated for a reaction time of 25 min at 22° C. The concentration of CDK9/CycT1 was adjusted depending of the activity of the enzyme lot and was chosen appropriate to have the assay in the linear range, typical concentrations were in the range of 0.5 microg/mL. The reaction was stopped by the addition of 3 microL of a solution of TR-FRET detection reagents (0.33 micromol/L streptavidine-XL665 [Cisbio Bioassays, Codolet, France] and 1.67 nanomol/L anti-RB(pSer807/pSer811)-antibody from BD Pharmingen [#558389] and 2 nanomol/L LANCE EU-W1024 labeled anti-mouse IgG antibody [Perkin-Elmer, product no. AD0077]) in an aqueous EDTA-solution (167 millimol/L EDTA, 0.2% (w/v) bovine serum albumin in 100 millimol/L HEPES pH 7.5).
The resulting mixture was incubated 1 h at 22° C. to allow the formation of complex between the phosphorylated biotinylated peptide and the detection reagents. Subsequently the amount of phosphorylated substrate was evaluated by measurement of the resonance energy transfer from the Eu-chelate to the streptavidine-XL. Therefore, the fluorescence emissions at 620 nm and 665 nm after excitation at 350 nm was measured in a TR-FRET reader, e.g. a Pherastar (BMG Labtechnologies, Offenburg, Germany) or a Viewlux (Perkin-Elmer). The ratio of the emissions at 665 nm and at […] was taken as the measure for the amount of phosphorylated substrate. The data were normalised (enzyme reaction without inhibitor=0% inhibition, all other assay components but no enzyme=100% inhibition).
Background: TR-FRET usually uses a lanthanide donor and a delayed reading to cut background.

The structures appear in SMILES notation. Like-named read-outs stand apart in the source and are kept apart here.

T1 sequence (P50750 whole entry): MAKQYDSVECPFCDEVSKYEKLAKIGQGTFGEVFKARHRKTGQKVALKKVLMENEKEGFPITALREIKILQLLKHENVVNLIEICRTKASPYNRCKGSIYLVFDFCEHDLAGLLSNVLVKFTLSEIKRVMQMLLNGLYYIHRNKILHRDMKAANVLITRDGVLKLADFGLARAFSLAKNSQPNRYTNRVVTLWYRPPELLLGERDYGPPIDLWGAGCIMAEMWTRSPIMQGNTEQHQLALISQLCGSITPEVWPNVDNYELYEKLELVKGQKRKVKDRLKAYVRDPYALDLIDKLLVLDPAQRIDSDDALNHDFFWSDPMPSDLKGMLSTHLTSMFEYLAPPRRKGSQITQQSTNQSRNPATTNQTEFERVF
T1 sequence (O60563 whole entry partner): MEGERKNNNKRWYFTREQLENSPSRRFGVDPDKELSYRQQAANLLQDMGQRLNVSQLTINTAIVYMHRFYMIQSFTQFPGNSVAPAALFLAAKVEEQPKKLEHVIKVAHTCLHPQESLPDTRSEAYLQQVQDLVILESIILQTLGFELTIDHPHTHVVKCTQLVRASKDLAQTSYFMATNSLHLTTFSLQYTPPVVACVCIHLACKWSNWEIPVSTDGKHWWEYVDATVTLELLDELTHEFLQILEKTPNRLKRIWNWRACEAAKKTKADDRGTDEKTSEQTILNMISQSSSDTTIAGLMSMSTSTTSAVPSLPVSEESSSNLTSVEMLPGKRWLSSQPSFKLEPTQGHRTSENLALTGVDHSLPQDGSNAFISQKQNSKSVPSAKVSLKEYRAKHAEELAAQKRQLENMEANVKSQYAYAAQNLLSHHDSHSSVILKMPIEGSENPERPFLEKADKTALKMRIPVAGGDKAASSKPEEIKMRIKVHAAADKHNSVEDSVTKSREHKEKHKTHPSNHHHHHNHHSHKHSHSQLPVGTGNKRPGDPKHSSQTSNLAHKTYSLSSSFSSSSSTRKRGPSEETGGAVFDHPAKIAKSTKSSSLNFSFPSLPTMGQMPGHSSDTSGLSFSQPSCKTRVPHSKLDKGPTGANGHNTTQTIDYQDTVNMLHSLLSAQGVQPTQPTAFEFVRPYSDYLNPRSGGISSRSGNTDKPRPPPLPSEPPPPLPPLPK

For the molecule `CN1CCC(n2nc(NCc3nc4ccccc4[nH]3)c3ncc(C4CC4)nc32)C1` (single isomer, unassigned) [Example 79, (−) or (+)-N-[(1H-benzimidazol-2-yl)methyl]-6-cyclopropyl-1-(1-methylpyrrolidin-3-yl)-1H-pyrazolo[3,4-b]pyrazin-3-amine], the results for the IC50 (in assay [1]; on CDK9/CyclinT1) were 217 nM and over 20000 nM, respectively.
On to `COCCC(C)n1nc(NCc2nc3ccccc3[nH]2)c2ncc(C3CC3)nc21` (single isomer, unassigned; (+)) [Example 59, (+)-N-[(1H-benzimidazol-2-yl)methyl]-6-cyclopropyl-1-[4-methoxybutan-2-yl]-1H-pyrazolo[3,4-b]pyrazin-3-amine], for which the IC50 is 816 nM in assay [1] and over 20000 nM on CDK9/CyclinT1.
On to `COCCC(C)n1nc(NCc2nc3ccccc3[nH]2)c2ncc(C3CC3)nc21` (single isomer, unassigned; (-)) [Example 58, (−)-N-[(1H-benzimidazol-2-yl)methyl]-6-cyclopropyl-1-[4-methoxybutan-2-yl]-1H-pyrazolo[3,4-b]pyrazin-3-amine], for which the IC50 in assay [1] was 213 nM; at CDK9/CyclinT1, over 20000 nM.
On to `CN1CCC(n2nc(NCc3nc4ccccc4[nH]3)c3ncc(C4CC4)nc32)CC1` [Example 1, N-[(1H-benzimidazol-2-yl)methyl]-6-cyclopropyl-1-(1-methylpiperidin-4-yl)-1H-pyrazolo[3,4-b]pyrazin-3-amine], for which the IC50 in assay [1] (Homo sapiens, MDA-MB-231, 96 h) is 24.9 nM; at CDK9/CyclinT1, over 20000 nM.
On to `COc1cccc2[nH]c(CNc3nn(C4CCN(C)CC4)c4nc(C5CC5)cnc34)nc12` [Example 2, 6-cyclopropyl-N-[(4-methoxy-1H-benzimidazol-2-yl)methyl]-1-(1-methylpiperidin-4-yl)-1H-pyrazolo[3,4-b]pyrazin-3-amine], for which the IC50 in assay [1] (Homo sapiens, MDA-MB-231, 96 h) is 10.8 nM; on CDK9/CyclinT1, over 20000 nM.
As to `CN1CCC(n2nc(NCc3nc4c(F)cccc4[nH]3)c3ncc(C4CC4)nc32)CC1` [Example 3, 6-cyclopropyl-N-[(4-fluoro-1H-benzimidazol-2-yl)methyl]-1-(1-methylpiperidin-4-yl)-1H-pyrazolo[3,4-b]pyrazin-3-amine], the IC50 was 3.73 nM in assay [1] (Homo sapiens, MDA-MB-231, 96 h) and over 20000 nM on CDK9/CyclinT1.
In the case of `CN1CCC(n2nc(NCc3nc4cc(F)ccc4[nH]3)c3ncc(C4CC4)nc32)CC1` [Example 4, 6-cyclopropyl-N-[(5-fluoro-1H-benzimidazol-2-yl)methyl]-1-(1-methylpiperidin-4-yl)-1H-pyrazolo[3,4-b]pyrazin-3-amine], the IC50 in assay [1] (Homo sapiens, MDA-MB-231, 96 h) was 51.3 nM; on CDK9/CyclinT1, over 20000 nM.
For the molecule `CN1CCC(n2nc(NCc3nc4c(C(F)(F)F)cccc4[nH]3)c3ncc(C4CC4)nc32)CC1` [Example 7, 6-cyclopropyl-1-(1-methylpiperidin-4-yl)-N-{[4-(trifluoromethyl)-1H-benzimidazol-2-yl]methyl}-1H-pyrazolo[3,4-b]pyrazin-3-amine], the IC50 in assay [1] (Homo sapiens, MDA-MB-231, 96 h) is 39.1 nM; at CDK9/CyclinT1 it was over 20000 nM.
For the molecule `Cc1cccc2[nH]c(CNc3nn(C4CCN(C)CC4)c4nc(C5CC5)cnc34)nc12` [Example 8, 6-cyclopropyl-N-[(4-methyl-1H-benzimidazol-2-yl)methyl]-1-(1-methylpiperidin-4-yl)-1H-pyrazolo[3,4-b]pyrazin-3-amine], the IC50 in assay [1] (Homo sapiens, MDA-MB-231, 96 h) is 39.6 nM; at CDK9/CyclinT1 it was over 20000 nM.
For `CN1CCC(n2nc(NCc3nc4c(F)c(F)ccc4[nH]3)c3ncc(C4CC4)nc32)CC1` [Example 9, 6-cyclopropyl-N-[(4,5-difluoro-1H-benzimidazol-2-yl)methyl]-1-(1-methylpiperidin-4-yl)-1H-pyrazolo[3,4-b]pyrazin-3-amine] the same measures were 41.2 nM and over 20000 nM.
In the same order, the values of `CC(C)(C)OC(=O)N1CCC(n2nc(NCc3nc4ccccc4[nH]3)c3ncc(C4CC4)nc32)CC1` [Example 11, tert-butyl 4-(3-{[(1H-benzimidazol-2-yl)methyl]amino}-6-cyclopropyl-1H-pyrazolo[3,4-b]pyrazin-1-yl)piperidine-1-carboxylate] are 176 nM and over 20000 nM.
In the same order, the values of `c1ccc2[nH]c(CNc3nn(C4CCNCC4)c4nc(C5CC5)cnc34)nc2c1` [Example 12, N-[(1H-benzimidazol-2-yl)methyl]-6-cyclopropyl-1-(piperidin-4-yl)-1H-pyrazolo[3,4-b]pyrazin-3-amine] are 38.3 nM and over 20000 nM.
As to `O=CO.c1ccc(-n2nc(NCc3nc4ccccc4[nH]3)c3ncc(C4CC4)nc32)cc1` [Example 13, formic acid—N-[(1H-benzimidazol-2-yl)methyl]-6-cyclopropyl-1-phenyl-1H-pyrazolo[3,4-b]pyrazin-3-amine (1/1)], the IC50 in assay [1] (Homo sapiens, MDA-MB-231, 96 h) is 168 nM; at CDK9/CyclinT1 it was over 20000 nM.
Consider `c1ccc2[nH]c(CNc3nn(C4CCOCC4)c4nc(C5CC5)cnc34)nc2c1` [Example 16, N-[(1H-benzimidazol-2-yl)methyl]-6-cyclopropyl-1-(oxan-4-yl)-1H-pyrazolo[3,4-b]pyrazin-3-amine], for which the IC50 was 70.2 nM in assay [1] (Homo sapiens, MDA-MB-231, 96 h) and over 20000 nM on CDK9/CyclinT1.
For the molecule `CN1CCC(n2nc(NCc3nc4cc(Cl)c(Cl)cc4[nH]3)c3ncc(C4CC4)nc32)CC1` [Example 19, 6-cyclopropyl-N-[(5,6-dichloro-1H-benzimidazol-2-yl)methyl]-1-(1-methylpiperidin-4-yl)-1H-pyrazolo[3,4-b]pyrazin-3-amine], the IC50 in assay [1] (Homo sapiens, MDA-MB-231, 96 h) was 4.83 nM; at CDK9/CyclinT1, over 20000 nM.
As for `CN1CCC(n2nc(NCc3nc4c(Br)cccc4[nH]3)c3ncc(C4CC4)nc32)CC1` [Example 20, N-[(4-bromo-1H-benzimidazol-2-yl)methyl]-6-cyclopropyl-1-(1-methylpiperidin-4-yl)-1H-pyrazolo[3,4-b]pyrazin-3-amine], the IC50 in assay [1] (Homo sapiens, MDA-MB-231, 96 h) was 14.4 nM; at CDK9/CyclinT1 it was over 20000 nM.
In the case of `Cc1c(Cl)ccc2[nH]c(CNc3nn(C4CCN(C)CC4)c4nc(C5CC5)cnc34)nc12` [Example 21, N-[(5-chloro-4-methyl-1H-benzimidazol-2-yl)methyl]-6-cyclopropyl-1-(1-methylpiperidin-4-yl)-1H-pyrazolo[3,4-b]pyrazin-3-amine], the IC50 was 11.3 nM in assay [1] (Homo sapiens, MDA-MB-231, 96 h) and over 20000 nM at CDK9/CyclinT1.
